We go through five compounds from patent US20260109674A1, “ALLOSTERIC MODULATION OF MUSCARINIC ACETYLCHOLINE RECEPTOR EFFICACY” (The University of Toledo, priority 2022, published 2026).

For data set [1], the target named is T1, M1 muscarinic receptors expressed in CHO cells (Homo sapiens, UniProt P11229).
T1 construct: expressed in transfected cells; host or cells: CHO (CHO-hM1, stably transfected)
T1 sequence (P11229 1-460): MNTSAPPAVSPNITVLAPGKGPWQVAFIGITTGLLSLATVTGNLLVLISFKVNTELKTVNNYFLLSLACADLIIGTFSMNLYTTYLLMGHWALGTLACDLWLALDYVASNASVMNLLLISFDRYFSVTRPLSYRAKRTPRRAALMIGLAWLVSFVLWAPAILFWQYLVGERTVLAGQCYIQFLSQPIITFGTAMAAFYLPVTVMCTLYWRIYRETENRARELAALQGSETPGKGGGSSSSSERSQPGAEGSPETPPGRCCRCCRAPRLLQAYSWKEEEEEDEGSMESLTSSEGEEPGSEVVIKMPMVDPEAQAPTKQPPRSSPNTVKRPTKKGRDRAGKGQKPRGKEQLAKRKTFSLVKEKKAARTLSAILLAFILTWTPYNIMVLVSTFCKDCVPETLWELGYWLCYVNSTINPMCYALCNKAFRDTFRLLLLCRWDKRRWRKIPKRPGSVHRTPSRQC
Briefly: Full ACh dose-response curves of [3H]AA release fitted to the allosteric operational model. Conditions: for Intrinsic Efficacy-B, τB / Activation cooperativity, A-B, β / Binding cooperativity, A-B, α / Kb: best-fit parameter; for Intrinsic Efficacy-B, τB / Activation cooperativity, A-B, β / Binding cooperativity, A-B, α: allosteric operational model; for Intrinsic Efficacy-B, τB: Em set to 2.0; for Activation cooperativity, A-B, β / Binding cooperativity, A-B, α: with ACh; for Kb: read-out: Affinity-B, KB (converted); for Effect on ACh potency and efficacy in full ACh dose-response curves (in words): modulator 10 μM. Format: cell-based. The procedure: (§1) Measurement of [^3H]AA release was performed. Stably transfected CHO-hM1 or CHO-hM3 cells were seeded on 24-well plates (Greiner Bio-One GmbH, Frickenhausen, Germany) at a density of 5.0×10^4 cells/well in 0.5 ml of F-12 medium. Cells were incubated until they attached (approximately 3 h), followed by the addition of [^3H]AA to a final concentration of 0.05 μCi of [^3H]AA per well. The cells were then grown for 16 to 20 h before the assay was performed. [^3H]AA release was measured in Eagle's basal medium with 20 mM HEPES and 2 mg/ml fatty acid-free bovine serum albumin (EM-BSA). Cells were rinsed twice with EM-BSA, followed by the addition of EM-BSA media containing experimental agents and incubated for 1 h at 37° C. The assay was terminated by aspiration of the media, and the amount of [^3H]AA released was determined by liquid scintillation counting (Beckman-Coulter LS6500).
(§2) Tabulated [^3H]AA release data are represented as a fraction of maximal release in the presence of 100 μM ACh or as the fraction of release elicited by the appropriate concentration of ACh alone, as indicated dose-response curves were normalized to the maximal response of ACh without allosteric ligand. Some response curves were analyzed using the empirical four-parameter equation: […]
where X is the log of the concentration of the ligand used, Y is the amount of response, C50 is the concentration of the ligand that produces 50% of the maximal effect, Top and Bottom are the top and bottom plateaus of the curve, respectively, and n is related to the Hill slope for the curve. In some cases, families of response curves were analyzed according to the allosteric operational model:
where EM is the maximal response; A is the concentration of ACh; B is the concentration of the allosteric ligand; τA and τB represent the intrinsic efficacies of A and B, respectively; KA and KB are the equilibrium dissociation constants of A and B, respectively; and α and β represent the cooperativities between A and B in terms of binding and activation, respectively. Curve-fitting was carried out with GraphPad Prism, version 5.0 or 6.0 (San Diego CA).

The target in data set [2] is T1, M1 muscarinic receptors expressed in CHO cells. The data set can be described thus: [3H]-arachidonic acid release screen with and without ACh and modulator. Format: cell-based. To be noted: for Ratio of response of ACh with modulator to response of ACh alone, 0.1 μM ACh / Ratio of response of ACh with modulator to response of ACh alone, 100 μM ACh / Stimulation of [3H]AA release, No ACh (fraction of stimulation above the control): 10 μM modulator. On the procedure:
CHO cells expressing human M1 muscarinic receptors were cultured at 37° C. in a 5% CO2 atmosphere in F12 medium supplemented with 5% fetal bovine serum, 100 units/mL penicillin, and 100 μg/mL streptomycin.
as §1
For some assays, pretreatment with phenoxybenzamine (POB) was employed, as indicated, to reduce the number of available receptors per cell. Stock POB was made up at 10 mM in ethanol and stored at −20° C. Each well was pretreated with 0.5 ml of the appropriate concentration in PBS with 1 mM CaCl2 and 1 mM MgCl2 (PBS++) for 30 min at 37° C., followed by 5 washes with PBS++. After pretreatment, the normal protocol was followed as above.
as §2
Disintegration per minute (DPM) values for a single compound were obtained in triplicate, and each compound was evaluated on three separate 24-well plates. The mean values for each condition from each of the three 24-well plates were used for the statistical analysis. The baseline mean was subtracted from each value, then normalized to the mean response produced by 100 μM ACh (set at 1.0). Statistical analyses were completed on the normalized values via one-way repeated measures ANOVA with Tukey's post hoc test. Statistically significant differences are noted as follows: *, p<0.05; **, p<0.01; ***, p<0.001.

The subject of data set [3] is wild-type zebrafish larvae. Briefly: Maximum tolerated concentration (MTC) determination in zebrafish larvae. The format is in vivo, Danio rerio. The procedure: Determination of maximum tolerated concentration was completed by placing 5 days post fertilization (dpf) wild-type zebrafish larvae in a 24 well plate at 6 fish per well, and one compound concentration per well. […] Death was determined by the absence of heartbeat. Additional endpoints were used to assess toxicity at non-lethal concentrations such as startle capacity (poke stimulus), abnormalities in swimming behavior (loss of dorsoventral balance), and gross morphological deformities (bent body). […] The MTC determination was used to select three doses of each compound (low, medium, high dose) to be used in behavioral assays.

Data set [4] relates to wild-type zebrafish larvae. Briefly: General locomotor assay in zebrafish larvae (locomotor activity, repetitive behaviors). Format: in vivo, Danio rerio. To be noted: for Effect on locomotor activity, angular velocity and turn angle (in words): spontaneous swimming period; for response vs control in vivo at 10 µM: Danio rerio, Table 5, 10 μM concentration, N = 12. The procedure: Five days post fertilization (dpf) zebrafish larvae were exposed to a range of nonlethal concentrations of the compounds in a 24-well plate with appropriate controls. The movement of each larval zebrafish was monitored with the Noldus behavior recording system (Noldus Information Technology, Leesburg VA) and quantified using EthoVision® XT 15 software (Noldus Information Technology, Leesburg VA). The plate was immediately placed in the incubator for a 30-minute exposure period. After 30 minutes, the plate was transferred to the Noldus system and swimming behavior was recorded in 100% light for 30 minutes to measure spontaneous swimming behavior. The light was switched off for 10 minutes (dark period) and then switched on for 10 minutes (light period), which was then repeated for two additional cycles. In total, the larvae were exposed to three cycles of alternating 10-minute dark and light periods (100% darkness-to-100% light). […]
All data for exposure and the behavioral end points were analyzed by one-way ANOVA (factor: drug conc) followed by a Dunnett's multiple comparisons test for post hoc significance between drug concentration and control group. Statistically significant differences are noted as follows: *, p<0.05; **, p<0.01; ***, p<0.001.

Where [5] appears, read: after 24-hour exposure, Table 3.
The mark [6] stands for this setting: after 24-hour exposure in separate experiments, Table 5.
Where [7] appears, read: read-out: Variance of Turn Angle.

Molecules are shown by their SMILES. Like-named read-outs stand apart in the source and are kept apart here.

Regarding `CCN(CC)CCOc1ccc(CN2C(=O)C(=O)c3ccccc32)cc1` [Compound 7, 1-(4-(2-(diethylamino)ethoxy)benzyl)indoline-2,3-dione], in data set [1], the “Intrinsic Efficacy-B, τB” value amounted to 0.0317 ± 0.0205; the “Activation cooperativity, A-B, β” value was 0.991 ± 0.120; the “Binding cooperativity, A-B, α” value came to 0.180 ± 0.0855; the Kb was 631 nM. In addition, the “Effect on ACh potency and efficacy in full ACh dose-response curves (in words)” value (“Effect on ACh potency and efficacy” below) in data set [1] is “decreased ACh potency with little impact on ACh efficacy”. In data set [2] (Table 1), the “Ratio of response of ACh with modulator to response of ACh alone, 0.1 μM ACh” value (from here on “Ratio of response of ACh … 0.1 μM ACh”) was 0.08 ± 0.02; the “Ratio of response of ACh with modulator to response of ACh alone, 100 μM ACh” value (“Ratio of response of ACh … 100 μM ACh” below) turned out to be 1.11 ± 0.06; the “Stimulation of [3H]AA release, No ACh (fraction of stimulation above the control)” value came out at 0.02 ± 0.01. Further, in data set [2] ([3H]AA release, modulator 10 μM), the “Modulation of ACh activity (in words)” value is “primarily decreased potency and slightly enhanced the efficacy of ACh activity”. The “Intrinsic agonist activity (in words)” value in data set [2] (modulator 10 μM, without ACh) is on record as “lacked intrinsic activity at the 10 μM concentration”. Further, in data set [3] (setting [5]), the “Maximum Tolerated Concentration” value was 10 µM. In addition, the “Effect on locomotor activity, angular velocity and turn angle (in words)” value (shortened to “Effect on locomotor activity”) in data set [4] is “did not significantly alter locomotor activity, angular velocity, and turn angle”.

Consider `COc1c(Br)cc(CN2C(=O)C(=O)c3ccccc32)cc1Br` [Compound 8c, 1-(3,5-dibromo-4-methoxybenzyl)indoline-2,3-dione], for which, in data set [1], the “Intrinsic Efficacy-B, τB” value worked out at 0.328 ± 0.0555; the “Activation cooperativity, A-B, β” value is 3.89 ± 0.610; the “Binding cooperativity, A-B, α” value is on record as 0.980 ± 0.388; the Kb is 2950 nM. In addition, the “Effect on ACh potency and efficacy” value in data set [1] is “dramatically enhanced ACh efficacy”. Moreover, in data set [2] (Table 1), the “Ratio of response of ACh … 0.1 μM ACh” value turned out to be 2.15 ± 0.05; the “Ratio of response of ACh … 100 μM ACh” value is 1.58 ± 0.01; the “Stimulation of [3H]AA release, No ACh (fraction of stimulation above the control)” value amounted to 0.23 ± 0.00. Further, the “Maximum Tolerated Concentration” value in data set [3] (setting [5]) was 30 µM.

Turning to `COc1cccc(CN2C(=O)C(=O)c3ccccc32)c1` [Compound 8j, 1-(3-methoxybenzyl)indoline-2,3-dione], the “Effect on ACh potency and efficacy” value in data set [1] is listed as “enhances ACh potency”. Also, in data set [2] (Table 1), the “Ratio of response of ACh … 0.1 μM ACh” value is 1.06 ± 0.15; the “Ratio of response of ACh … 100 μM ACh” value came to 0.96 ± 0.10; the “Stimulation of [3H]AA release, No ACh (fraction of stimulation above the control)” value was determined as 0.02 ± 0.02. In data set [4], the “Effect on locomotor activity” value is “significantly decreased locomotor activity and increased angular velocity and absolute turn angle”.

Regarding `COc1c(Br)cc(CN2C(=O)C(=O)c3cc(OC(F)(F)F)ccc32)cc1Br` [GK-1-48], in data set [2] (Table 4, N = 4-5), the “Ratio of response of ACh … 0.1 μM ACh” value is on record as 3.04 ± 0.47; the “Ratio of response of ACh … 100 μM ACh” value came to 1.66 ± 0.07; the “Stimulation of [3H]AA release, No ACh (fraction of stimulation above the control)” value is 0.15 ± 0.01. Besides, in data set [3] (setting [6]), the “Maximum Tolerated Concentration” value worked out at 3 µM. Also, the response vs control in vivo at 10 µM in data set [4] (read-out: Angular Velocity) is 134 ± 16.5%. Also, the response vs control in vivo at 10 µM in data set [4] (read-out: Total Distance Moved) worked out at 80.1 ± 11.7%. For the same compound, the response vs control in vivo at 10 µM in data set [4] (setting [7]) came out at 109 ± 11.9%. Besides, in data set [4], the “Effect on locomotor activity” value is “significant increase in angular velocity”.

On to `COc1c(Br)cc(Cn2cc(C(=O)O)c(=O)c3ccccc32)cc1Br` [GK-1-50], for which, in data set [2] (Table 4, N = 4-5), the “Ratio of response of ACh … 0.1 μM ACh” value was 2.77 ± 0.49; the “Ratio of response of ACh … 100 μM ACh” value amounted to 1.11 ± 0.12; the “Stimulation of [3H]AA release, No ACh (fraction of stimulation above the control)” value stood at 0.47 ± 0.10. Further, the “Maximum Tolerated Concentration” value in data set [3] (setting [6]) is 10 µM. Besides, the response vs control in vivo at 10 µM in data set [4] (read-out: Angular Velocity) was found to be 124 ± 21.8%. The response vs control in vivo at 10 µM in data set [4] (read-out: Total Distance Moved) was determined as 87.9 ± 10.7%. The response vs control in vivo at 10 µM in data set [4] (setting [7]) is 107 ± 11.2%.
